Measured values published in PubChem BioAssay (NCI).
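Here, GI50 denotes the concentration required for 50% inhibition of growth. At the TGI there is no net growth.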

Columns and labels:
Experiment in all cases: DTP human tumour cell line panel, 384-well format
SF-295 CNS = test system: SF-295 CNS
BT-549 breast = test system: BT-549 breast
COLO 205 colon = test system: COLO 205 colon
EKVX NSCLC = test system: EKVX NSCLC
UACC-62 melanoma = test system: UACC-62 melanoma
K-562 leukemia = test system: K-562 leukemia
M14 melanoma = test system: M14 melanoma
OVCAR-3 ovarian = test system: OVCAR-3 ovarian
HT29 colon = test system: HT29 colon
SW-620 colon = test system: SW-620 colon
786-0 renal = test system: 786-0 renal
ACHN renal = test system: ACHN renal
OVCAR-8 ovarian = test system: OVCAR-8 ovarian
RXF 393 renal = test system: RXF 393 renal
SK-MEL-5 melanoma = test system: SK-MEL-5 melanoma
HCC-2998 colon = test system: HCC-2998 colon
SR leukemia = test system: SR leukemia
HL-60(TB) leukemia = test system: HL-60(TB) leukemia
CAKI-1 renal = test system: CAKI-1 renal
NCI-H226 lung = test system: NCI-H226 lung
HOP-92 NSCLC = test system: HOP-92 NSCLC
IGROV1 ovarian = test system: IGROV1 ovarian
SK-OV-3 ovarian = test system: SK-OV-3 ovarian
OVCAR-5 ovarian = test system: OVCAR-5 ovarian
OVCAR-4 ovarian = test system: OVCAR-4 ovarian
NCI-H460 NSCLC = test system: NCI-H460 NSCLC
SNB-75 CNS = test system: SNB-75 CNS
NCI/ADR-RES ovarian = test system: NCI/ADR-RES ovarian

`CN(C)CCNC(=O)NC[C@H]1CC[C@@H]2[C@H](O1)c1cc(C(F)(F)F)ccc1N[C@H]2c1ccccc1` showed a GI50 (SF-295 CNS) of 171 nM, a TGI (SF-295 CNS) of 2060 nM and a GI50 (BT-549 breast) of 113 nM. It also gave a TGI (BT-549 breast) of 10400 nM, a GI50 (COLO 205 colon) of 39.4 nM and a TGI (COLO 205 colon) of 156 nM. For the same compound, the GI50 (EKVX NSCLC) was 261 nM, the TGI (EKVX NSCLC) was 16300 nM and the GI50 (UACC-62 melanoma) was 56 nM. It also gave a TGI (UACC-62 melanoma) of 14500 nM, a GI50 (K-562 leukemia) of 53.3 nM and a TGI (K-562 leukemia) of 257 nM. The GI50 (M14 melanoma) was 31.4 nM, the TGI (M14 melanoma) was 92.3 nM and the GI50 (OVCAR-3 ovarian) was 37.5 nM. For the same compound, the TGI (OVCAR-3 ovarian) was 164 nM, the GI50 (HT29 colon) was 168 nM and the TGI (HT29 colon) was 443 nM. The GI50 (SW-620 colon) was 89.4 nM, the TGI (SW-620 colon) was 16000 nM and the GI50 ([…]-0 renal) was 528 nM. It also gave a TGI (786-0 renal) of 19000 nM, a GI50 (ACHN renal) of 11300 nM and a TGI (ACHN renal) of 23500 nM. The GI50 (OVCAR-8 ovarian) was 63.4 nM, the TGI (OVCAR-8 ovarian) was 16600 nM and the GI50 (RXF 393 renal) was 78.4 nM. It also gave a TGI (RXF 393 renal) of 13300 nM, a GI50 (SK-MEL-5 melanoma) of 39.8 nM and a TGI (SK-MEL-5 melanoma) of 370 nM. The GI50 (HCC-2998 colon) was 93.2 nM, the TGI (HCC-2998 colon) was 11700 nM and the GI50 (SR leukemia) was 20.4 nM. For the same compound, the TGI (SR leukemia) was 41.6 nM, the GI50 (HL-60(TB) leukemia) was 32.5 nM and the TGI (HL-60(TB) leukemia) was 82.4 nM. The GI50 (CAKI-1 renal) was 223 nM, the TGI (CAKI-1 renal) was 26300 nM and the GI50 (NCI-H226 lung) was 2760 nM. For the same compound, the TGI (NCI-H226 lung) was 23100 nM, the GI50 (HOP-92 NSCLC) was 206 nM and the TGI (HOP-92 NSCLC) was 16100 nM. For the same compound, the GI50 (IGROV1 ovarian) was 10500 nM, the TGI (IGROV1 ovarian) was 27000 nM and the GI50 (SK-OV-3 ovarian) was 42.5 nM. It also gave a TGI (SK-OV-3 ovarian) of 18100 nM, a GI50 (OVCAR-5 ovarian) of 380 nM and a TGI (OVCAR-5 ovarian) of 12700 nM. It also gave a GI50 (OVCAR-4 ovarian) of 370 nM, a TGI (OVCAR-4 ovarian) of 10800 nM and a GI50 (NCI-H460 NSCLC) of 36 nM. The TGI (NCI-H460 NSCLC) was 130 nM, the GI50 (SNB-75 CNS) was 152 nM and the TGI (SNB-75 CNS) was 16200 nM. The GI50 (NCI/ADR-RES ovarian) was 4300 nM and the TGI (NCI/ADR-RES ovarian) was 18900 nM.
